Measured values reported in ChEMBL document CHEMBL1157938, “Cytotoxicity and inhibition of DNA topoisomerase I of polyhydroxylated triterpenoids and triterpenoid glycosides” (Bioorg Med Chem Lett, 2010).
The source made the active and inactive calls. The rule behind the calls is not given here.

Assays:
PANC-1 [1] = experiment: Cytotoxicity against human PANC1 cells after 48 hrs by WST8 assay; assay type: functional; conditions: PANC-1, 48 h
[2] = Cytotoxicity against human MRC5 cells after 48 hrs by WST8 assay; assay type: cell-based
[3] = target: DNA topoisomerase 2-alpha (Homo sapiens, UniProt P11388); experiment: Inhibition of human DNA topoisomerase 2-mediated relaxation of supercoiled DNA by gel electrophoresis
A549 [4] = experiment: Cytotoxicity against human A549 cells after 48 hrs by WST8 assay; assay type: functional; conditions: A549, 48 h
HL-60 [5] = experiment: Cytotoxicity against human HL60 cells after 48 hrs by WST8 assay; assay type: functional; conditions: HL-60, 48 h
PC-3 [6] = experiment: Cytotoxicity against human PC3 cells after 48 hrs by WST8 assay; assay type: functional; conditions: PC-3, 48 h
DNA topoisomerase 1 = target: T1, DNA topoisomerase 1 (Homo sapiens, UniProt P11387); experiment: Inhibition of human DNA topoisomerase 1-mediated relaxation of supercoiled DNA by gel electrophoresis
T1 sequence (P11387 whole entry): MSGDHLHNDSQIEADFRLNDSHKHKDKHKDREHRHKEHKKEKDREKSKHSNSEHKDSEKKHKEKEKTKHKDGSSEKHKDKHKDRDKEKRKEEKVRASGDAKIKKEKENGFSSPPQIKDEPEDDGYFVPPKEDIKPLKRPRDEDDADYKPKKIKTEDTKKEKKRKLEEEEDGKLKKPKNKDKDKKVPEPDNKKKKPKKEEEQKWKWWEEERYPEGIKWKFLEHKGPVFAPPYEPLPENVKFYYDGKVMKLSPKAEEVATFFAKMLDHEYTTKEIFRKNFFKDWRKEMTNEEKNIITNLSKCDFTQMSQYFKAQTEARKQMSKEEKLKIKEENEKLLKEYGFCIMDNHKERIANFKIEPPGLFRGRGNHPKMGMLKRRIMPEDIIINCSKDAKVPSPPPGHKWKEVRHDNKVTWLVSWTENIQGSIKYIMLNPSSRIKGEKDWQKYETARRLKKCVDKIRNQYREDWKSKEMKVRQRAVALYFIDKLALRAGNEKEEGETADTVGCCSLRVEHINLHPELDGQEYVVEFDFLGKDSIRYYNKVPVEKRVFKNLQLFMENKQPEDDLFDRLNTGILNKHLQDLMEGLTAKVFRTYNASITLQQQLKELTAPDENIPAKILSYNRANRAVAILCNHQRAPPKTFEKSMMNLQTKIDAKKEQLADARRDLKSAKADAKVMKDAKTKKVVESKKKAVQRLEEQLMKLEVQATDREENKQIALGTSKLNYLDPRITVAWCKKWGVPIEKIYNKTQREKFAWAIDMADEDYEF

HL-60 [7] = experiment: Cytotoxicity against human HL60 cells at 25 uM after 48 hrs by WST8 assay; assay type: functional, cell-based
PC-3 [8] = experiment: Cytotoxicity against human PC3 cells at 25 uM after 48 hrs by WST8 assay; assay type: functional, cell-based
PANC-1 [9] = experiment: Cytotoxicity against human PANC1 cells at 25 uM after 48 hrs by WST8 assay; assay type: functional, cell-based
MRC5 = experiment: Cytotoxicity against human MRC5 cells at 25 uM after 48 hrs by WST8 assay; assay type: cell-based; conditions: mrc5, 48 h
A549 [10] = experiment: Cytotoxicity against human A549 cells at 25 uM after 48 hrs by WST8 assay; assay type: functional, cell-based
[11] = target: T2, DNA topoisomerase 1 (Homo sapiens) (UniProt P11387); experiment: Inhibition of human DNA topoisomerase 1-mediated relaxation of supercoiled DNA at 312 uM
T2 sequence (whole entry): T1 sequence (P11387 whole entry)

DNA topoisomerase 2-alpha, sequence (P11388 whole entry): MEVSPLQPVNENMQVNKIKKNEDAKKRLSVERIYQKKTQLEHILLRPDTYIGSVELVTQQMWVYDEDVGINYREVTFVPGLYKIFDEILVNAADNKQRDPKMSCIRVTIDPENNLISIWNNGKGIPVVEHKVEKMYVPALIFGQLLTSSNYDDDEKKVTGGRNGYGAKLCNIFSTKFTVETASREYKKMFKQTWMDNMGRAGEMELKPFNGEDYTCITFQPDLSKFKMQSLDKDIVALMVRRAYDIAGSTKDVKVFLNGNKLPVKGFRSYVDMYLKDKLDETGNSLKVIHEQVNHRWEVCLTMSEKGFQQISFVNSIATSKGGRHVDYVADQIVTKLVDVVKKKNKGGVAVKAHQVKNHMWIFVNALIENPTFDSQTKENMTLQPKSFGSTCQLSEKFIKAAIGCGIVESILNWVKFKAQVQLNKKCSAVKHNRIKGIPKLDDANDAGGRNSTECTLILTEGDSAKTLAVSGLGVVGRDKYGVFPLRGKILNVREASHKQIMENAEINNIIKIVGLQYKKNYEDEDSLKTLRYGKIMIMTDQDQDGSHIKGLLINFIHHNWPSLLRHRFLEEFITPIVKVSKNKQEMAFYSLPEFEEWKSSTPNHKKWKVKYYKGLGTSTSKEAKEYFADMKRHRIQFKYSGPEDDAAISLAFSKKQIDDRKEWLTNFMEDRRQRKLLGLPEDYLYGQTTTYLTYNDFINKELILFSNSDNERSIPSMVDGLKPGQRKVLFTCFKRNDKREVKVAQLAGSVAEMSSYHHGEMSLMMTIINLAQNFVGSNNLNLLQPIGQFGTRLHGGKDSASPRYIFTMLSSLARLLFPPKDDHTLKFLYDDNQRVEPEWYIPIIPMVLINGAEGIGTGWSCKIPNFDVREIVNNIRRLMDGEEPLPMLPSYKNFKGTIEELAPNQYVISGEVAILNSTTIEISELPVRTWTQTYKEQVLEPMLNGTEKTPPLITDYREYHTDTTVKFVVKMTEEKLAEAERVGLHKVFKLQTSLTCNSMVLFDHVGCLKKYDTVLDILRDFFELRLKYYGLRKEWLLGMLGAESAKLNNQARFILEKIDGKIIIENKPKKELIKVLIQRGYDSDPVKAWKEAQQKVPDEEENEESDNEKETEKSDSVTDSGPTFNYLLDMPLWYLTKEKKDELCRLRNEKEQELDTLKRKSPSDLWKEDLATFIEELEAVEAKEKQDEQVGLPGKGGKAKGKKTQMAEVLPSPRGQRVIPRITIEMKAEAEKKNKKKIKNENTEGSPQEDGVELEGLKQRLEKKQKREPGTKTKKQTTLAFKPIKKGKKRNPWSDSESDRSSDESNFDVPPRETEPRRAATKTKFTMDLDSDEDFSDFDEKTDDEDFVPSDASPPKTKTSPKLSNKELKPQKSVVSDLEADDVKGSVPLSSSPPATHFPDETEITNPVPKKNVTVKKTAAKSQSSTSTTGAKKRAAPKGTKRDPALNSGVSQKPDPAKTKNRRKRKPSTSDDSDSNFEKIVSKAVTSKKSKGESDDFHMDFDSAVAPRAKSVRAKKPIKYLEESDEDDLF

| Structure (SMILES) | GI50 (PANC-1 [1]) [µM] | GI50 at 48 h [2] [µM] | IC50 [3] [µM] | GI50 (A549 [4]) [µM] | GI50 (HL-60 [5]) [µM] | GI50 (PC-3 [6]) [µM] | IC50 (DNA topoisomerase 1) [µM] | growth inhibition (GI) (HL-60 [7]) | growth inhibition (GI) (PC-3 [8]) | growth inhibition (GI) (PANC-1 [9]) | growth inhibition (GI) (MRC5) | growth inhibition (GI) (A549 [10]) | inhibition [11] |
| --- | --- | --- | --- | --- | --- | --- | --- | --- | --- | --- | --- | --- | --- |
| C/C=C(/C)C(=O)O[C@H]1[C@H](OC(=O)/C(C)=C\C)[C@]2(CO)[C@H](O)C[C@]3(C)C(=CC[C@@H]4[C@@]5(C)CC[C@H](O)[C@](C)(CO)[C@@H]5CC[C@]43C)[C@@H]2CC1(C)C | 4.63 | 1.65 | > 250 | 1.94 | 2.72 | 2.39 | > 250 |  |  |  |  |  |  |
| C/C=C(/C)C(=O)O[C@H]1[C@H](OC(=O)C(C)CC)[C@]2(CO)[C@H](O)[C@H](O)[C@]3(C)C(=CC[C@@H]4[C@@]5(C)CC[C@H](O)C(C)(C)[C@@H]5CC[C@]43C)[C@@H]2CC1(C)C (stereo not given in full) | 12.8 | 6.53 | > 250 | 5.37 | 4.21 | 12.5 | > 250 |  |  |  |  |  |  |
| C/C=C(/C)C(=O)O[C@H]1[C@H](OC(=O)C(C)CC)[C@]2(CO)[C@H](O)C[C@]3(C)C(=CC[C@@H]4[C@@]5(C)CC[C@H](O)C(C)(C)[C@@H]5CC[C@]43C)[C@@H]2CC1(C)C (stereo not given in full) | 9.6 | 3.67 | > 250 | 1.7 | 4.6 | 4.11 | > 250 |  |  |  |  |  |  |
| C/C=C(/C)C(=O)O[C@H]1[C@H](OC(=O)C(C)C)[C@]2(CO)[C@H](O)C[C@]3(C)C(=CC[C@@H]4[C@@]5(C)CC[C@H](O)[C@](C)(CO)[C@@H]5CC[C@]43C)[C@@H]2CC1(C)C | 8 | 2.71 | > 250 | 3.81 | 2.53 | 2.34 | > 250 |  |  |  |  |  |  |
| C/C=C(/C)C(=O)O[C@H]1[C@H](O)[C@]2(CO)[C@H](O)C[C@]3(C)C(=CC[C@@H]4[C@@]5(C)CC[C@H](O)[C@](C)(CO)[C@@H]5CC[C@]43C)[C@@H]2CC1(C)C | 11.9 | 18.1 | > 250 | 2.45 |  | 2.23 | > 250 | inactive |  |  |  |  |  |
| C[C@H]1[C@H](C)CC[C@]2(C)CC[C@]3(C)C(=CC[C@@H]4[C@@]5(C)CC[C@H](O)C(C)(C)[C@@H]5CC[C@]43C)[C@H]12 | 12.8 |  | > 250 | 10.5 |  | 7.66 | > 250 | inactive |  |  |  |  |  |
| C/C=C(/C)C(=O)O[C@H]1[C@H](OC(C)=O)[C@]2(CO)[C@H](O)C[C@]3(C)C(=CC[C@@H]4[C@@]5(C)CC[C@H](O[C@@H]6O[C@H](C(=O)O)[C@@H](O)[C@H](O[C@@H]7O[C@@H](CO)[C@H](O)[C@H]7O)[C@H]6O[C@@H]6O[C@H](CO)[C@@H](O)[C@H](O)[C@H]6O)[C@](C)(CO)[C@@H]5CC[C@]43C)[C@@H]2CC1(C)C [AESCULIOSIDE III] | 14.8 | 12.8 | > 250 | 20.1 | 8.37 | 9.54 | > 250 |  |  |  |  |  |  |
| C/C=C(\C)C(=O)O[C@H]1[C@H](OC(C)=O)[C@]2(CO)[C@H](O)C[C@]3(C)C(=CC[C@@H]4[C@@]5(C)CC[C@H](O[C@@H]6O[C@H](C(=O)O)[C@@H](O)[C@H](O[C@@H]7O[C@@H](CO)[C@H](O)[C@H]7O)[C@H]6O[C@@H]6O[C@H](CO)[C@H](O)[C@H](O)[C@H]6O)C(C)(C)[C@@H]5CC[C@]43C)[C@@H]2CC1(C)C [AESCULIOSIDE IIJ] | 21.9 | 17.3 | > 250 | 21.8 |  | 13.8 | > 250 | inactive |  |  |  |  |  |
| C/C=C(/C)C(=O)O[C@H]1[C@H](OC(C)=O)[C@]2(CO)[C@H](O)[C@H](O)[C@]3(C)C(=CC[C@@H]4[C@@]5(C)CC[C@H](O[C@@H]6O[C@H](C(=O)O)[C@@H](O)[C@H](O[C@@H]7OC[C@@H](O)[C@H](O)[C@H]7O)[C@H]6O[C@@H]6O[C@H](CO)[C@@H](O)[C@H](O)[C@H]6O)C(C)(C)[C@@H]5CC[C@]43C)[C@@H]2CC1(C)C [ERYNGIIOSIDE J] | 11.5 | 5.61 | > 250 | 4.3 | 7.36 | 5.08 | > 250 |  |  |  |  |  |  |
| C/C=C(/C)C(=O)O[C@H]1[C@H](OC(C)=O)[C@]2(CO)[C@H](O)C[C@]3(C)C(=CC[C@@H]4[C@@]5(C)CC[C@H](O[C@@H]6O[C@H](C(=O)O)[C@@H](O)[C@H](O[C@@H]7OC[C@H](O)[C@H](O)[C@H]7O)[C@H]6O[C@@H]6O[C@H](CO)[C@@H](O)[C@H](O)[C@H]6O)C(C)(C)[C@@H]5CC[C@]43C)[C@@H]2CC1(C)C [ERYNGIIOSIDE L] | 13 | 8.71 | > 250 | 8.35 | 8.41 | 11.3 | > 250 |  |  |  |  |  |  |
| C/C=C(/C)C(=O)O[C@H]1[C@H](O)C(C)(C)C[C@H]2C3=CC[C@@H]4[C@@]5(C)CC[C@H](O[C@@H]6O[C@H](C(=O)O)[C@@H](O)[C@H](O[C@@H]7OC[C@@H](O)[C@H](O)[C@H]7O)[C@H]6O[C@@H]6O[C@H](CO)[C@@H](O)[C@H](O)[C@H]6O)C(C)(C)[C@@H]5CC[C@@]4(C)[C@]3(C)C[C@@H](O)[C@]21CO [ERYNGIOSIDE F] |  |  | > 250 |  |  |  | > 250 | inactive | inactive | inactive | Not Active | inactive |  |
| CC1(C)C=C2[C@H]3CC[C@@H]4[C@@]5(C)CC[C@H](O)C(C)(C)[C@@H]5CC[C@@]4(C)[C@]3(C)CC[C@@]2(C)CC1 [GERMANICOL] |  |  |  |  |  |  |  | inactive | inactive | inactive | Not Active | inactive | inactive |
| C/C=C(/CC)C(=O)O[C@H]1[C@H](OC(C)=O)[C@]2(CO)[C@H](O)[C@H](O)[C@]3(C)C(=CC[C@@H]4[C@@]5(C)CC[C@H](O[C@@H]6O[C@H](C(=O)O)[C@@H](O)[C@H](O[C@@H]7OC[C@H](O)[C@H](O)[C@H]7O)[C@H]6O[C@@H]6O[C@H](CO)[C@@H](O)[C@H](O)[C@H]6O)C(C)(C)[C@@H]5CC[C@]43C)[C@@H]2CC1(C)C [SANICULASAPONIN III] | 16 | 3.54 | > 250 | 4.73 | 7.11 | 8.51 | > 250 |  |  |  |  |  |  |
| CC(=O)O[C@H]1CC[C@]2(C)[C@H]3CC=C4[C@@H]5CC(C)(C)CC[C@]5(C)CC[C@@]4(C)[C@]3(C)CC[C@H]2C1(C)C [beta-AMYRIN ACETATE] |  |  |  |  |  |  |  | inactive | inactive | inactive | Not Active | inactive | inactive |
